Laboratory results taken from ChEMBL document CHEMBL6121032, “Mining Druggable Sites in Influenza A Hemagglutinin: Binding of the Pinanamine-Based Inhibitor M090” (ACS Med Chem Lett, 2025).

System: Influenza A virus
Experiment: Antiviral activity against Influenza virus A/WSN/33 expressing M2 S31N mutant channel infected in MDCK cells by plaque reduction assay
Assay type: functional, organism-based

Brc1ccc(CNC23CC4CC(CC(C4)C2)C3)s1
EC50: 1.8 mM
